According to publication PMC9031249, “New 3-Acyl Tetramic Acid Derivatives from the Deep-Sea-Derived Fungus Lecanicillium fusisporum” (Marine Drugs, 2022):
Like-named read-outs stand apart in the source and are kept apart here.

Experiments:
NF-κB = NF-κB luciferase reporter assay in LPS-induced RAW264.7 cells; assay type: cell-based; details: treated 4 h, then LPS 100 ng/mL for 6 h, read-out: EC50, inhibition of NF-κB production
Experimental: The effects of 1–8 on LPS-induced NF-κB luciferase activity were detected by luciferase reporter gene assay as described earlier. Briefly, RAW264.7 cells, stably transfected with a NF-κB luciferase reporter construct, were treated with 1–8 (30 μM) and BAY11-7082 (NF-κB inhibitor, 5 μM) for 4 h, followed by stimulation with LPS (100 ng/mL^−1) for 6 h. The luciferase activity was determined using the luciferase assay system (Promega, Madison, WI, USA). The dose-dependent effects of 1–8 and BAY11-7082 on LPS induced NF-κB luciferase activity were detected by the same assay.

[1] = test system: NO production in LPS-induced RAW264.7 cells; design: method as in PMID 24016057, PMID 27976895; details: read-out: EC50, inhibition of NO production; cited from earlier work
[2] = LPS induced RAW264.7 cells stably transfected with NF-κB luciferase reporter
[3] = Mus musculus, RAW264.7, LPS induced RAW264.7 cells stably transfected with NF-κB luciferase reporter

| Compound | EC50 (NF-κB; [2]) [µM] | EC50 (NF-κB; [3]) [µM] | EC50 [1] [µM] |
| --- | --- | --- | --- |
| Cc1ccc(S(=O)(=O)/C=C/C#N)cc1 [BAY11-7082, reference compound] | 1.5 ± 1.4 | – | – |
| CC(C)=C1NC(=O)C(O)(C2C=CCC(C)O2)C1=O (stereo not drawn) [Compound 1, Lecanicilliumin A] | – | 18.5 ± 1.21 | – |
| CC(C)=C1NC(=O)C(O)(C2C=CCC(C)O2)C1=O (stereo not drawn) [Compound 2, Lecanicilliumin B] | 25.8 ± 1.3 | – | – |
| COC1CC(C2(O)C(=O)NC(=C(C)C)C2=O)CC(C)O1 (stereo not drawn) [Compound 5, Lecanicilliumin E] | – | 23.1 ± 1.26 | – |
| COC1CC(C2(O)C(=O)NC(=C(C)C)C2=O)CC(C)O1 (stereo not drawn) [Compound 6, Lecanicilliumin F] | 24.7 ± 1.19 | – | – |
| CC(C)=C1NC(=O)C(O)(CC=CCC(C)O)C1=O (stereo not drawn) [Compound 7, Lecanicilliumin G] | – | 26.5 ± 1.12 | – |
| C/C=C/C1=CC=C/C(=C2\C(=O)CNC2=O)O1 [Vermelhotin] | – | – | 5.35 |
| pseurotin A3 | – | – | 34.5 |
| pseurotin G | – | – | 57 |
